Reference: US20250339409A1, “USES OF PAN BET INHIBITORS” (VYNE THERAPEUTICS INC., priority 2021, published 2025)
“And” between values parts separate entries of the source, which are not always exact repeats. Identical values can stand only once.

System: incisional skin wounds
Assay: Incisional skin wound healing model (external and internal scoring, time to complete healing, body weight)
Type: in vivo, female Hairless Skh-1 mice
Parameters: key to Mean internal scores, Score presence tissue mass: 0 = no tissue mass, 1 = small, 2 = moderate, 3 = large; key to Global external score per day (mean): sum of the scores of 4 external wound parameters; MBWC D 16 − D 0, individual mouse: unit not given here
Settings: for Global external score per day (mean) / Mean score swelling per day / Mean score visibility (external) per day: BETi1 at 1%; for Mean score length (mm) per day / Mean score width (mm) per day: skin wound; for Body weight, individual mouse: in g (unit assumed)
Experimental: Incisional wounds (10 mm) are made over the entire thickness of the skin (about 1 mm) on both flanks of nine female Hairless Skh-1 mice divided into 3 groups (n=3) according to body weight on D0. Formulations or hydroalcoholic gel are administered topically once daily starting immediately after the induction of skin wounds on DO until the complete healing of both wounds of each mouse, at the same time in the morning. The effects of treatment on wound healing with the formulation used containing one dose of the novel BETi, the vehicle of this new compound (negative control) and a hydroalcoholic gel preventing wound healing (positive control), is evaluated by the daily scoring of the healing process externally. The scoring is based on the daily measurement of the length and width, swelling of each induced skin wound from DO until complete healing, the determination of the time required for complete healing of each of induced skin wounds, and after complete healing of both wounds of a same mouse, by the scoring of the healing process internally by evaluation of the visibility of the scar, the presence of a tissue mass (collagen+elastin) under the scar and the level of vascularization of the scar.
Mice are weighed 3 times per week from the day of induction of skin wounds (D0) until the complete healing of both wounds of each mouse and before sacrifice. The viability and the well being of mice of each cage is checked and recorded daily.
The scoring takes into account the following 4 parameters: The length of the skin wounds measured with a ruler.
The width of the skin wounds with the following scoring grid: • 0=skin wound completely closed, • 1=skin wound almost completely closed, • 2=skin wound moderately closed, • 3=skin wound wide open.
The swelling of the skin wounds with the following scoring grid: • 0=skin wound no or no longer swollen, • 1=skin wound slightly swollen, • 2=skin wound moderately swollen, • 3=skin wound highly swollen.
The visibility of the skin wounds with the following scoring grid: • 0=skin wound no or no longer visible, • 1=skin wound slightly visible, • 2=skin wound moderately visible, • 3=skin wound highly visible.
The sum of the scores of these 4 parameters gives the Global External Score of Wound Healing (GESWH). The time required for complete healing of each induced skin wound is also determined.
After the complete healing of both skin wounds of each mouse, mice are sacrificed, and the scoring of the healing process internally is performed for each wound and takes into account the following 3 parameters: • visibility of the scar with the following scoring grid: • 0=scar highly visible • 1=scar moderately visible, • 2=scar slightly visible • 3=scar non-visible.
The presence of a tissue mass (collagen+elastin) under the scar with the following scoring grid: • 0=no tissue mass present, • 1=small tissue mass present, • 2=moderate tissue mass present, • 3=large tissue mass present.
The level of vascularization of the scar with the following scoring grid: • 0=important vascularization of the scar, • 1=moderate vascularization of the scar, • 2=low vascularization of the scar, • 3=very little vascularization of the scar.
The sum of the scores of these 3 parameters gives the Global Internal Score of Wound Healing (GISWH). A macroscopic observation of all organs of the abdominal and thoracic cavities is performed on all mice. Any other organ with abnormal shape, size or colour is listed.
The body weight, mean body weight change (MBWC) of mice, the external scores of the length, width, swelling and visibility of skin wounds as well as the Global External Score of Wound Healing (GESWH), the time required for complete healing of skin wounds, and the internal scores of the visibility, the presence of a tissue mass and the vascularization of scars as well as the Global Interna Score of Wound Healing (GISWH) are analyzed at the end of the experimentation. […]

## Cn1cc(-c2cccc(O)c2Oc2ccccc2)c2cc[nH]c2c1=O [BETi1]
D 0
  Global external score per day (mean): 15.00
  Mean score swelling per day: 0.00
  Mean score visibility (external) per day: 3.00
  Mean score length (mm) per day: 10.00 mm
  Mean score width (mm) per day: 2.00 mm
D 1
  Global external score per day (mean): 16.33
  Mean score swelling per day: 1.33
  Mean score visibility (external) per day: 3.00
  Mean score length (mm) per day: 10.00 mm
  Mean score width (mm) per day: 2.00 mm
D 2
  Global external score per day (mean): 17.67
  Mean score swelling per day: 2.00
  Mean score visibility (external) per day: 3.00
  Mean score length (mm) per day: 10.00 mm
  Mean score width (mm) per day: 2.67 mm
D 3
  Global external score per day (mean): 18.17
  Mean score swelling per day: 2.00
  Mean score visibility (external) per day: 3.00
  Mean score length (mm) per day: 10.00 mm
  Mean score width (mm) per day: 2.83 mm
D 4
  Global external score per day (mean): 17.50
  Mean score swelling per day: 2.17
  Mean score visibility (external) per day: 3.00
  Mean score length (mm) per day: 9.33 mm
  Mean score width (mm) per day: 3.00 mm
D 5
  Global external score per day (mean): 15.00
  Mean score swelling per day: 2.17
  Mean score visibility (external) per day: 3.00
  Mean score length (mm) per day: 7.50 mm
  Mean score width (mm) per day: 2.33 mm
D 6
  Global external score per day (mean): 14.17
  Mean score swelling per day: 2.17
  Mean score visibility (external) per day: 3.00
  Mean score length (mm) per day: 6.50 mm
  Mean score width (mm) per day: 2.50 mm
D 7
  Global external score per day (mean): 13.67
  Mean score swelling per day: 2.50
  Mean score visibility (external) per day: 3.00
  Mean score length (mm) per day: 5.67 mm
  Mean score width (mm) per day: 2.50 mm
D 8
  Global external score per day (mean): 13.50
  Mean score swelling per day: 2.33
  Mean score visibility (external) per day: 2.83
  Mean score length (mm) per day: 5.67 mm
  Mean score width (mm) per day: 2.67 mm
D 9
  Global external score per day (mean): 13.33
  Mean score swelling per day: 2.17
  Mean score visibility (external) per day: 2.83
  Mean score length (mm) per day: 5.50 mm
  Mean score width (mm) per day: 2.83 mm
D 10
  Global external score per day (mean): 12.00
  Mean score swelling per day: 2.17
  Mean score visibility (external) per day: 2.83
  Mean score length (mm) per day: 4.83 mm
  Mean score width (mm) per day: 2.17 mm
D 11
  Global external score per day (mean): 10.33
  Mean score swelling per day: 1.83
  Mean score visibility (external) per day: 2.67
  Mean score length (mm) per day: 3.83 mm
  Mean score width (mm) per day: 2.00 mm
D 12
  Global external score per day (mean): 8.00
  Mean score swelling per day: 1.67
  Mean score visibility (external) per day: 2.17
  Mean score length (mm) per day: 2.67 mm
  Mean score width (mm) per day: 1.50 mm
D 13
  Global external score per day (mean): 5.17
  Mean score swelling per day: 1.67
  Mean score visibility (external) per day: 1.17
  Mean score length (mm) per day: 1.50 mm
  Mean score width (mm) per day: 0.83 mm
D 14
  Global external score per day (mean): 4.50
  Mean score swelling per day: 1.67
  Mean score visibility (external) per day: 0.83
  Mean score length (mm) per day: 1.17 mm
  Mean score width (mm) per day: 0.83 mm
D 15
  Global external score per day (mean): 3.00
  Mean score swelling per day: 1.50
  Mean score visibility (external) per day: 0.50
  Mean score length (mm) per day: 0.50 mm
  Mean score width (mm) per day: 0.50 mm
D 16
  Global external score per day (mean): 2.17
  Mean score swelling per day: 1.17
  Mean score visibility (external) per day: 0.33
  Mean score length (mm) per day: 0.33 mm
  Mean score width (mm) per day: 0.33 mm
D 17
  Global external score per day (mean): 0.50
  Mean score swelling per day: 0.50
  Mean score visibility (external) per day: 0.00
  Mean score length (mm) per day: 0.00 mm
  Mean score width (mm) per day: 0.00 mm
After complete healing
  Mean internal scores, Global internal score: 2.00
  Mean internal scores, Score presence tissue mass: 0.50
  Mean internal scores, Score vascularization: 1.33
  Mean internal scores, Score visibility scar: 0.17
Compared to hydroalcoholic gel, beginning at treatment day 5
  global external lesion severity score: statistically significant decrease (improvement) in global external lesion severity score
Incisional lesions
  complete healing earlier compared to hydroalcoholic gel: approximately 5 days
  mean time to heal: 15.5 days
Incisional wounds, once daily topical
  Mean time for complete wound healing, Day for complete healing: 15.50 days
Significantly different on Days 15, 16 and 17 compared to vehicle and hydroalcoholic gel
  swelling at wound edges: rapidly reduced the swelling at wound edges
Throughout the treatment period
  tolerability within the lesion sites and in general: appeared to be well-tolerated
Wound model, D 0
  Mean body weight (gram) per day: 26.61 gram
Wound model, D 0, listed as BETi11.0%
  Body weight, individual mouse: 25.00 and 28.64 and 26.19
Wound model, D 2
  Mean body weight (gram) per day: 25.53 gram
Wound model, D 4
  Mean body weight (gram) per day: 25.70 gram
Wound model, D 7
  Mean body weight (gram) per day: 26.10 gram
Wound model, D 9
  Mean body weight (gram) per day: 26.85 gram
Wound model, D 11
  Mean body weight (gram) per day: 27.01 gram
Wound model, D 13
  Mean body weight (gram) per day: 26.88 gram
Wound model, D 16
  Mean body weight (gram) per day: 27.33 gram
Wound model, D 16, listed as BETi11.0%
  Body weight, individual mouse: 25.10 and 28.47 and 28.43
Wound model, listed as BETi11.0%
  MBWC D 16 − D 0, individual mouse: 0.10 and −0.17 and 2.24
